From patent US20250262198A1, “METHOD FOR TREATING MULTIPLE SCLEROSIS” (BEIJING INNOCARE PHARMA TECH CO., LTD., priority 2022, published 2025)

Experiments:
[1] = system: patients with relapsing-remitting multiple sclerosis (RRMS); experiment: Randomized, double-blind, placebo-controlled phase 2 study of orelabrutinib in RRMS patients (Core part); assay type: in vivo, human; conditions: for percent reduction of cumulative number of new Gd+T1 brain lesions relative to placebo: ITT population; for Adjusted mean cumulative number of new Gd+T1 lesions from W 4 to W 24 / Adjusted mean cumulative number of new Gd+T1 lesions at Week 12 / % Reduction of cumulative number of new Gd+T1 lesions from Week 4 to Week 24 vs placebo/50 mg QD switch arm / % Reduction of cumulative number of new Gd+T1 brain lesions vs placebo / Annualized relapse rate (ARR): PHS population; for Adjusted mean cumulative number of new Gd+T1 lesions at Week 12: placebo 4.34
Procedure: This is a randomized, double-blind, placebo-controlled, phase 2 study of orelabrutinib in patients with relapsing-remitting multiple sclerosis (RRMS) that consists of 2 parts: a Core part and an Open-label Extension (OLE) part. The Core part is completed, and the OLE part is on-going.
The completed Core part consisted of a 4-week screening period and 24-week treatment period. Patients with RRMS were randomly assigned to 1 of 4 treatment groups in a 1:1:1:1 ratio: placebo, orelabrutinib 50 mg once daily (QD), orelabrutinib 50 mg twice daily (BID), or orelabrutinib 80 mg QD. At Week 13, patients in the placebo cohort were switched to orelabrutinib 50 mg QD.
Patients with RRMS were randomly assigned to 1 of 4 treatment groups: placebo, orelabrutinib (50 mg, once daily [QD]), orelabrutinib (80 mg QD) and orelabrutinib (50 mg, twice daily [BID]) at a 1:1:1:1 ratio. • Cohort 1: Placebo (Week 1-12)/orelabrutinib 50 mg QD (Week 13-24) • Cohort 2: Orelabrutinib 50 mg QD (Week 1-24) • Cohort 3: Orelabrutinib 80 mg QD (Week 1-24) • Cohort 4: Orelabrutinib 50 mg BID (Week 1-24)
At week 12 of the treatment period, subjects in Cohort 1 were switched to orelabrutinib at a starting daily dose of 50 mg. A separate open-label extension (OLE) study was developed to allow continued dosing, provided that safety and tolerability were acceptable.
Placebo or orelabrutinib was orally administered daily starting on Day 1 of the treatment period. Subjects returned to study site on Day 8 and every 4 weeks starting from Day 1 for trial visits and were assessed for safety and efficacy.
• Intent-to treat (ITT) population. 158 patients randomized: 40 in placebo, 37 in 50 mg QD cohort, 41 in 50 mg BID cohort, and 40 in 80 mg QD cohort. • 3 force majeure events during the study caused missing MRI data at Week 4, 8, or 12 timepoints: Ukraine war & crisis, COVID-19 pandemic outbreak, and FDA's partial clinical hold. • Post-hoc analysis set (PHS) population. 115 patients remaining after excluding patients who missed any one of the 3 MRI data points within first 12 weeks: 27 in placebo, 30 in 50 mg QD, 29 in 50 mg BID, and 29 in 80 mg QD. • 132 patients completed 12 weeks of treatment and 127 patients completed 24 weeks of treatment.
(PHS Population, N=115) The adjusted mean cumulative number, percent reduction (orelabrutinib vs placebo) associated with p-value are estimated from a Poisson regression model with a Pearson scale parameter with a log link function and offset by log number of scans as of Week 12. Baseline number of Gd+T1 brain lesions is included in the model as a continuous covariate.
The adjusted mean cumulative numbers are estimated from Poisson regression models with a Pearson scale parameter with a log link function and offset by log number of scans as of that visit. Baseline number of Gd+T1 brain lesions is included in the model as a continuous covariate.

[2] = system: MOG35-55-induced EAE mouse model; experiment: MOG35-55-induced EAE mouse model of multiple sclerosis, oral orelabrutinib; assay type: in vivo, C57BL/6 mouse
Procedure: Multiple sclerosis (MS) is a chronic neuroinflammatory demyelinating disorder of the central nervous system (CNS). EAE (Experimental Autoimmune Encephalomyelitis) is the most common animal model of human MS as it is especially useful to investigate neuroinflammatory pathways. The synthesized peptide MOG35-55-induced EA E mouse model was used to evaluate the therapeutic potential of orelabrutinib. 100 μL emulsion consisted of 0.75 mg/ml MOG35-55 and 4 mg/mL CFA were injected subcutaneously into two different sites on each hind flank of each C57BL/6 mouse. 300 ng of pertussis toxin in 100 μL of PBS were injected intraperitoneally at the day of immunization and two days later. Mice were randomized into 2 groups as follows: vehicle and orelabrutinib 30 mg/kg/day. Each group had 10 animals. On the day of immunization, animals were dosed QD by PO gavage with either vehicle or test compound for 21 days.

In the case of `C=CC(=O)N1CCC(c2ccc(C(N)=O)c(-c3ccc(Oc4ccccc4)cc3)n2)CC1` [orelabrutinib, 2-(4-phenoxyphenyl)-6-[1-(prop-2-enoyl)piperidin-4-yl]pyridine-3-carboxamide], the “percent reduction of cumulative number of new Gd+T1 brain lesions relative to placebo” value ([1]; Week 12, 50 mg BID) is reported as 78.8%, the “percent reduction of cumulative number of new Gd+T1 brain lesions relative to placebo” value ([1]; Week 12, 50 mg QD) is reported as 73.3% and the “percent reduction of cumulative number of new Gd+T1 brain lesions relative to placebo” value ([1]; Week 12, 80 mg QD) is reported as 80.5%. For the same molecule, the “Adjusted mean cumulative number of new Gd+T1 lesions from W 4 to W 24” value (“Adjusted mean cumulative number … to W 24” for short) ([1]; 50 mg BID (N=29)) was 1.08, the “Adjusted mean cumulative number of new Gd+T1 lesions at Week 12” value (“Adjusted mean cumulative number … at Week 12” for short) ([1]; 50 mg BID (N=29)) was 0.82 and the “% Reduction of cumulative number of new Gd+T1 lesions from Week 4 to Week 24 vs placebo/50 mg QD switch arm” value (shortened to “% Reduction … vs placebo/50 mg QD switch arm”) ([1]; 50 mg BID, P 0.0114) was 83.3%. For the same molecule, the “Adjusted mean cumulative number … to W 24” value ([1]; 50 mg QD (N=30)) was 2.10, the “Adjusted mean cumulative number … at Week 12” value ([1]; 50 mg QD (N=30)) was 1.14 and the “% Reduction … vs placebo/50 mg QD switch arm” value ([1]; 50 mg QD, P 0.0958) was 67.4%. For the same molecule, the “Adjusted mean cumulative number … to W 24” value ([1]; 80 mg QD (N=29)) was 0.50, the “Adjusted mean cumulative number … at Week 12” value ([1]; 80 mg QD (N=29)) was 0.42 and the “% Reduction … vs placebo/50 mg QD switch arm” value ([1]; 80 mg QD, P 0.0037) was 92.3%. For the same molecule, the “% Reduction of cumulative number of new Gd+T1 brain lesions vs placebo” value ([1]; Week 12, 50 mg BID (N=29), P 0.0073) was 81.0%, the “% Reduction of cumulative number of new Gd+T1 brain lesions vs placebo” value ([1]; Week 12, 50 mg QD (N=30), P 0.0278) was 73.8% and the “% Reduction of cumulative number of new Gd+T1 brain lesions vs placebo” value ([1]; Week 12, 80 mg QD (N=29), P 0.0018) was 90.4%. The “Annualized relapse rate (ARR)” value ([1]; Week 24, 50 mg BID) was 0.12, the “Annualized relapse rate (ARR)” value ([1]; Week 24, 50 mg QD) was 0.05 and the “Annualized relapse rate (ARR)” value ([1]; Week 24, 80 mg QD) was 0.06. The “Annualized relapse rate (ARR)” value ([1]; Week 24, placebo/50 mg QD switch arm (placebo Week 1-12, orelabrutinib 50 mg QD Week 13-24)) was 0.14, the “Adjusted mean cumulative number … to W 24” value ([1]; switch arm: placebo Week 1-12 / orelabrutinib 50 mg QD Week 13-24 (N=27)) was 6.45 and the “Annualized relapse rate (ARR) compared to the placebo group” value ([1]; all orelabrutinib cohorts, Week 12, sustained through Week 24) was “reduced”. For the same molecule, the “control of new T1 lesions” value ([1]; all orelabrutinib cohorts, after 4 weeks of treatment, effect sustained up to 24 weeks) was “Control of new T1 lesions was achieved”, the “average clinical score (EAE)” value ([2]; 30 mg/kg/day PO QD, day 15 post-immunization, vehicle 2.0) was 0.9 and the “average clinical score (EAE)” value ([2]; 30 mg/kg/day PO QD, day 21, p<0.05, vehicle 1.5) was 0.6. The “body weight loss associated with EAE” value ([2]; 30 mg/kg/day PO QD, vs vehicle) was “reduced weight loss”, the “reduction of EAE score” value ([2]; 30 mg/kg/day oral) was 50% and the EAE severity ([2]; 30 mg/kg/day oral, vs vehicle) was “markedly ameliorated EAE severity”.
